Source: ChEMBL document CHEMBL5154798, “Structure-based discovery of receptor tyrosine kinase AXL degraders with excellent anti-tumor activity by selectively degrading AXL and inducing methuosis” (Eur J Med Chem, 2022)
Each block holds one molecule with its values, some of them ahead of it. Activity calls are given as the source filed them. The rule behind the calls is not given here.

Legend:
MDA-MB-231 [1] = assay: Antiproliferative activity against human MDA-MB-231 cells highly expressing AXL after 72 hrs by MTT assay; conditions: MDA-MB-231, 72 h
4T1 [2] = assay: Antiproliferative activity against mouse 4T1 cells highly expressing AXL after 72 hrs by MTT assay; conditions: 4T1, 72 h
[3] = Cytotoxicity against human MCF-10A cells after 72 hrs by MTT assay; format: toxicity, cell-based
[4] = Cytotoxicity against human GES1 cells after 72 hrs by MTT assay; format: toxicity, cell-based
[5] = Systemic toxicity in female BALB/c nude mouse xenografted with human MDA-MB-231 cells assessed as inflammatory cell infiltration in lung at 25 mg/kg, ip; format: organism-based; conditions: in vivo
[6] = Systemic toxicity in female BALB/c nude mouse xenografted with human MDA-MB-231 cells assessed as necrosis of kidney tissue at 25 mg/kg, ip; format: organism-based; conditions: in vivo
[7] = Systemic toxicity in female BALB/c nude mouse xenografted with human MDA-MB-231 cells assessed as necrosis of lung tissue at 25 mg/kg, ip; format: organism-based; conditions: in vivo
[8] = AUC (0 to t) in male Sprague-Dawley rat at 2 mg/kg, iv administered as single dose measured by LC/MS/MS analysis; format: ADME, organism-based; parameters: dose 2 mg/kg, route iv; conditions: in vivo
4T1 [9] = assay: Induction of cytoplasmic vacuolation in mouse 4T1 cells at 0.5 uM; format: functional, cell-based
MDA-MB-231 [10] = assay: Induction of macropinocytosis in human MDA-MB-231 cells measured by LysoTracker staining based fluorescence microscopy; format: functional, cell-based
MDA-MB-231 [11] = assay: Antitumor activity against human MDA-MB-231 cells xenografted in female BALB/c nude mouse assessed as tumor growth inhibition at 25 mg/kg, ip; format: functional, organism-based
[12] = Oral bioavailability in male Sprague-Dawley rat at 20 mg/kg administered as single dose measured by LC/MS/MS analysis; format: ADME, organism-based; conditions: in vivo
[13] = Cmax in male Sprague-Dawley rat at 2 mg/kg, iv administered as single dose measured by LC/MS/MS analysis; format: ADME, organism-based; parameters: dose 2 mg/kg, route iv; conditions: in vivo
MDA-MB-231 [14] = assay: Induction of macropinocytosis in human MDA-MB-231 cells measured by MitoTracker staining based fluorescence microscopy; format: functional, cell-based
[15] = Systemic toxicity in female BALB/c nude mouse xenografted with human MDA-MB-231 cells assessed as necrosis of liver tissue at 25 mg/kg, ip; format: organism-based; conditions: in vivo
MDA-MB-231 [16] = assay: Induction of macropinocytosis in human MDA-MB-231 cells assessed as co-localization of LAMP-1 with lucifer yellow measured by immunofluorescence assay; format: functional, cell-based
[17] = Systemic toxicity in female BALB/c nude mouse xenografted with human MDA-MB-231 cells assessed as inflammatory cell infiltration in spleen at 25 mg/kg, ip; format: organism-based; conditions: in vivo
[18] = Clearance in male Sprague-Dawley rat at 2 mg/kg, iv administered as single dose measured by LC/MS/MS analysis; format: ADME, organism-based; conditions: in vivo, iv, 2 mg/kg
MDA-MB-231 [19] = assay: Induction of cytoplasmic vacuolation in human MDA-MB-231 cells at 1 uM in presence of 1 uM pan-caspase inhibitor Z-VAD-FMK; format: functional, cell-based
Mus musculus = assay: In vivo induction of CRBN-mediated AXL degradation in mouse measured after 6 hrs; format: functional, organism-based
MDA-MB-231 [20] = assay: Induction of cytoplasmic vacuolation in human MDA-MB-231 cells at 0.5 uM; format: functional, cell-based
[21] = Systemic toxicity in female BALB/c nude mouse xenografted with human MDA-MB-231 cells assessed as necrosis of heart tissue at 25 mg/kg, ip; format: organism-based; conditions: in vivo
[22] = Systemic toxicity in female BALB/c nude mouse xenografted with human MDA-MB-231 cells assessed as inflammatory cell infiltration in heart at 25 mg/kg, ip; format: organism-based; conditions: in vivo
[23] = Tmax in male Sprague-Dawley rat at 20 mg/kg, po administered as single dose measured by LC/MS/MS analysis; format: ADME, organism-based; conditions: in vivo
[24] = Systemic toxicity in female BALB/c nude mouse xenografted with human MDA-MB-231 cells assessed as inflammatory cell infiltration in liver at 25 mg/kg, ip; format: organism-based; conditions: in vivo
[25] = Half-life in male Sprague-Dawley rat at 2 mg/kg, iv administered as single dose measured by LC/MS/MS analysis; format: ADME, organism-based; conditions: in vivo
[26] = Half-life in male Sprague-Dawley rat at 20 mg/kg, po administered as single dose measured by LC/MS/MS analysis; format: ADME, organism-based; conditions: in vivo
MDA-MB-231 [27] = assay: Induction of macropinocytosis in human MDA-MB-231 cells assessed as co-localization of Rab7 with lucifer yellow measured by immunofluorescence assay; format: functional, cell-based
[28] = Systemic toxicity in female BALB/c nude mouse xenografted with human MDA-MB-231 cells assessed as inflammatory cell infiltration in kidney at 25 mg/kg, ip; format: organism-based; conditions: in vivo
[29] = Cmax in male Sprague-Dawley rat at 20 mg/kg, po administered as single dose measured by LC/MS/MS analysis; format: ADME, organism-based; parameters: dose 20 mg/kg, route po; conditions: in vivo
[30] = Toxicity in female BALB/c nude mouse xenografted with human MDA-MB-231 cells assessed as change in body wieght at 25 mg/kg, ip; format: organism-based; conditions: in vivo
[31] = Tmax in male Sprague-Dawley rat at 2 mg/kg, iv administered as single dose measured by LC/MS/MS analysis; format: ADME, organism-based; conditions: in vivo
[32] = AUC (0 to t) in male Sprague-Dawley rat at 20 mg/kg, po administered as single dose measured by LC/MS/MS analysis; format: ADME, organism-based; parameters: dose 20 mg/kg, route po; conditions: in vivo
[33] = Systemic toxicity in female BALB/c nude mouse xenografted with human MDA-MB-231 cells assessed as necrosis of spleen tissue at 25 mg/kg, ip; format: organism-based; conditions: in vivo
[34] = biological target: T1, Tyrosine-protein kinase receptor UFO (Homo sapiens, UniProt P30530); assay: Inhibition of AXL (unknown origin) measured by FRET assay
T1 sequence (P30530 whole entry): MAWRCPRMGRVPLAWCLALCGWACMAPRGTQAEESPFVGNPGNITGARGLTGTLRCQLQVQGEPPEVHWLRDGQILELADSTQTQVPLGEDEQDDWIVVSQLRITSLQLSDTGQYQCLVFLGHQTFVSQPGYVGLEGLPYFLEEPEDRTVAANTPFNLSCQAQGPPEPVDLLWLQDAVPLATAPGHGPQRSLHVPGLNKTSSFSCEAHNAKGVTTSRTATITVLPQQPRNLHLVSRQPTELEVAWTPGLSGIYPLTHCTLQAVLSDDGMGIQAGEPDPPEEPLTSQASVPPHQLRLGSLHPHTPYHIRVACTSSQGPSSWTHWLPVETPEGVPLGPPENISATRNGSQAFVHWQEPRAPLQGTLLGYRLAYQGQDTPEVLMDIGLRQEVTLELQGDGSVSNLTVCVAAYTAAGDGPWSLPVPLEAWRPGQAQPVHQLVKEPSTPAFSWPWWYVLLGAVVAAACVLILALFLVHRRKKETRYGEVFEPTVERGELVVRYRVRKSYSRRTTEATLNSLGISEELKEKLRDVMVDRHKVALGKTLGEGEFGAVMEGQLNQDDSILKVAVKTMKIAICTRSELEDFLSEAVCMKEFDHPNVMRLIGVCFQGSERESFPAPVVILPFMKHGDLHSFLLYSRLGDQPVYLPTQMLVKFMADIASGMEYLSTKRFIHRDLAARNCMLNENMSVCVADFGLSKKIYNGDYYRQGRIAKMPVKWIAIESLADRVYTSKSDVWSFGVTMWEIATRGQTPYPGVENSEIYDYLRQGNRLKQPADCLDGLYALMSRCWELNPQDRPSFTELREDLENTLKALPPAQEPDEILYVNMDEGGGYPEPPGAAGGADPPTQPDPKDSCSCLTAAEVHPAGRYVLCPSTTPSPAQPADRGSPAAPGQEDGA

Compound: Nc1nc(NCCNC(=O)CCCCNc2cccc3c2CN(C2CCC(=O)NC2=O)C3=O)nn1-c1ccc(-c2ccccc2)nn1 (stereo not given)
- IC50 (MDA-MB-231 [1]): 52.2 µM
- IC50 (4T1 [2]): > 60 µM
- IC50 at 72 h [3]: > 60 µM
- IC50 at 72 h [4]: > 60 µM

Compound: Nc1nc(NCCNC(=O)CCCCCNc2cccc3c2CN(C2CCC(=O)NC2=O)C3=O)nn1-c1cc2c(nn1)-c1ccccc1CCC2 (stereo not given)
- IC50 (MDA-MB-231 [1]): > 60 µM
- IC50 (4T1 [2]): 37.5 µM
- IC50 at 72 h [3]: > 60 µM
- IC50 at 72 h [4]: > 60 µM

Compound: Nc1nc(NCCNC(=O)CCCNc2cccc3c2CN(C2CCC(=O)NC2=O)C3=O)nn1-c1cc2c(nn1)-c1ccccc1CCC2 (stereo not given)
- IC50 (MDA-MB-231 [1]): > 60 µM
- IC50 [34]: > 60 µM
- IC50 at 72 h [3]: > 60 µM
- IC50 at 72 h [4]: > 60 µM

Compound: Nc1nc(Nc2ccc(CNC(=O)CCCCNc3cccc4c3CN(C3CCC(=O)NC3=O)C4=O)cc2)nn1-c1cc2c(nn1)-c1ccccc1CCC2 (stereo not given)
- IC50 (MDA-MB-231 [1]): 39.1 µM
- IC50 (4T1 [2]): 41.3 µM
- IC50 at 72 h [3]: > 60 µM
- IC50 at 72 h [4]: > 60 µM

Compound: Nc1nc(NCCNC(=O)CCCCCCCNc2cccc3c2CN(C2CCC(=O)NC2=O)C3=O)nn1-c1cc2c(nn1)-c1ccccc1CCC2 (stereo not given)
- IC50 (MDA-MB-231 [1]): > 60 µM
- IC50 (4T1 [2]): 27.2 µM
- IC50 at 72 h [3]: > 60 µM
- IC50 at 72 h [4]: > 60 µM

The next molecules have a lower IC50 (MDA-MB-231 [1]) than those just listed; values first:

- IC50 (MDA-MB-231 [1]): 27.6 µM
- IC50 (4T1 [2]): 21.1 µM
Compound: Nc1nc(Nc2ccc(CNC(=O)CCCCCCCNc3cccc4c3CN(C3CCC(=O)NC3=O)C4=O)cc2)nn1-c1cc2c(nn1)-c1ccccc1CCC2 (stereo not given)
- IC50 at 72 h [3]: > 60 µM
- IC50 at 72 h [4]: > 60 µM

- AUCt [8]: 7581.3 ng·h/mL
- IC50 (MDA-MB-231 [1]): 6.23 µM
- bioavailability [12]: 7.8%
- Cmax [13]: 279 ng/mL
- CL [18]: 12 mL/min/kg
- IC50 (4T1 [2]): 2.06 µM
- Tmax [23]: 2.25 h
- t1/2 [25]: 1.18 h
- half-life [26]: 4.43 h
- Cmax [29]: 144 ng/mL
- Tmax [31]: 0.82 h
- AUC(0-t) [32]: 3590 ng·h/mL
Compound: Nc1nc(Nc2ccc(CNC(=O)CCCCCNc3cccc4c3CN(C3CCC(=O)NC3=O)C4=O)cc2)nn1-c1ccc(-c2ccccc2)nn1 (stereo not given)
- Activity [5]: Non-Toxic
- Activity [6]: Non-Toxic
- Activity [7]: Non-Toxic
- Activity (4T1 [9]): Active
- Activity (MDA-MB-231 [10]): Active
- TGI (MDA-MB-231 [11]): Active
- Activity (MDA-MB-231 [14]): Active
- Activity [15]: Non-Toxic
- Activity (MDA-MB-231 [16]): Active
- Activity [17]: Non-Toxic
- Activity (MDA-MB-231 [19]): Active
- Activity (Mus musculus): Active
- Activity (MDA-MB-231 [20]): Active
- Activity [21]: Non-Toxic
- Activity [22]: Non-Toxic
- Activity [24]: Non-Toxic
- IC50 at 72 h [3]: > 60 µM
- IC50 at 72 h [4]: > 60 µM
- Activity (MDA-MB-231 [27]): Active
- Activity [28]: Non-Toxic
- Activity [30]: Non-Toxic
- Activity [33]: Non-Toxic

- IC50 (MDA-MB-231 [1]): 34.7 µM
- IC50 (4T1 [2]): 19.5 µM
Compound: Nc1nc(NCCNC(=O)CCCCCCCNc2cccc3c2CN(C2CCC(=O)NC2=O)C3=O)nn1-c1ccc(-c2ccccc2)nn1 (stereo not given)
- IC50 at 72 h [3]: > 60 µM
- IC50 at 72 h [4]: > 60 µM

- IC50 (MDA-MB-231 [1]): 32.8 µM
- IC50 (4T1 [2]): 29.6 µM
Compound: Nc1nc(Nc2ccc(CNC(=O)CCCCCNc3cccc4c3CN(C3CCC(=O)NC3=O)C4=O)cc2)nn1-c1cc2c(nn1)-c1ccccc1CCC2 (stereo not given)
- IC50 at 72 h [3]: > 60 µM
- IC50 at 72 h [4]: > 60 µM

- IC50 (MDA-MB-231 [1]): 29.5 µM
- IC50 (4T1 [2]): 2230 µM
Compound: Nc1nc(Nc2ccc(CNC(=O)CCCCCCNc3cccc4c3CN(C3CCC(=O)NC3=O)C4=O)cc2)nn1-c1cc2c(nn1)-c1ccccc1CCC2 (stereo not given)
- IC50 at 72 h [3]: > 60 µM
- IC50 at 72 h [4]: > 60 µM
